Several values for one entry are separate records, joined by “and”; a condition that tells them apart may be missing. Equal entries are not always repeated. One block for each molecule: values may come before it.
What was measured:
[1] = biological target: Igf2bp1-cMyc RNA interaction (Homo sapiens, UniProt Q9NZI8); details: fluorescence polarization; cited from earlier work
H1299 cells = assay: Wound healing (cell migration) assay, H1299 cells; type: cell-based, human; details: H1299 cells; 10 μM compound 15 vs 20 μM 7773 in FIGS. 20A-B
Experimental: Cells were seeded in 96 IncuCyte® ImageLock plates (20×10^3 cells per well) for 24 hours, to a near confluency of 95%, before the addition of increasing concentrations of compound. After a further 24 hours, wells were scratched using the IncuCyte® 96-well WoundMaker Tool, and the cells cultured for an additional 48 hours using the IncuCyte® S3 Live-Cell Analysis System (Essen BioScience). The plate was imaged at increments of 120 minutes for a period of 48 hours, and then analyzed for relative wound healing.

[2] = Cell proliferation, compound 15 (cell line not stated); type: cell-based
[3] = biological target: T1, Igf2bp1 binding to Kras 6 RNA (Homo sapiens, UniProt Q9NZI8); assay: Fluorescence polarization (FP) assay of Igf2bp1 binding to fluorescent Kras 6 RNA; details: FP dose response; read-out: IC50 for inhibition of Igf2bp1 binding to Kras 6 RNA
T1 construct: Recombinant full-length Igf2bp1 protein; made in house; host or cells: E. coli BL21(DE3)
T1 sequence (Q9NZI8 whole entry): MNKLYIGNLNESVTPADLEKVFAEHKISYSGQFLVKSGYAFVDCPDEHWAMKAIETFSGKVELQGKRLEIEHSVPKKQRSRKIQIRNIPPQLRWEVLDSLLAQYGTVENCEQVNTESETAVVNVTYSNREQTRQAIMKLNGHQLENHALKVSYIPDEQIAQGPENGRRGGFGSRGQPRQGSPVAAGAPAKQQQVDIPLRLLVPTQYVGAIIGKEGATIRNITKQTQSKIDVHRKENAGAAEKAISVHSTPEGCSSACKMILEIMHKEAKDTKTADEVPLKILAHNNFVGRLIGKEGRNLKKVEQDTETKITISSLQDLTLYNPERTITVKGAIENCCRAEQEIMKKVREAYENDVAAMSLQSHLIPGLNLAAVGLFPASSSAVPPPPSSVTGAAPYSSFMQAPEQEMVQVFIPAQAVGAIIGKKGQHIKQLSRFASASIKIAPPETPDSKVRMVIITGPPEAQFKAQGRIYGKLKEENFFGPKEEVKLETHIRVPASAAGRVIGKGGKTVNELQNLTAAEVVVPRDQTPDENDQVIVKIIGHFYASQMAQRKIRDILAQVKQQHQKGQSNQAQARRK
Experimental: For the small molecule screen, compounds were obtained from the collection maintained at the Grand Israel National Center for Personalized Medicine, consisting of molecules purchased from commercial vendors. Labelled RNA (10 nM) was incubated with recombinant Igf2bp1 protein (400 nM) in FAM-RNA buffer (10 mM Tris pH 8.0, 75 mM KCl, 0.5 mM EDTA, 1 mM DTT, 0.0188 U/μL RNAsin, 0.0005 μg/mL heparin, 0.0001 μg/μL tRNA, 0.01% Triton X-100, 3 mM MgCl2, 0.05% IGEPAL) at room temperature for 15 min. […] of this reaction mix was aliquoted with GNF WDII (USA) into wells of 1536 well plates, with a final concentration of […] compound or DMSO. The plates were spun down and read in a BMG Pherastar FS (Germany) plate reader plate reader, in FP mode with a 485/520/520 polarization filter, calibrated to 35 mP for free fluorescein with similar total intensity as experimental samples. […]
To determine the quality of the inventors screening assay, the Z′ factor for each plate was calculated with a Z′ factor greater than 0.5 indicating a robust assay suitable for high throughput screening. Compounds that altered the overall fluorescence intensity compared to controls were considered auto florescence and excluded from further analysis. […] Any small molecule that causes a change of more than three standard deviations from the mean is determined appropriate for further investigation.

Igf2bp1 = biological target: T2, Igf2bp1 (Homo sapiens, UniProt Q9NZI8); assay: Microscale thermophoresis (MST) binding to full-length Igf2bp1; details: MST
T2 construct: Recombinant full-length Igf2bp1 protein; made in house; host or cells: E. coli BL21(DE3)
T2 sequence (Q9NZI8 whole entry): as above
Experimental: Recombinant full-length Igf2bp1 protein was labelled with RED-tris-NTA dye using a Monolith NT His-Tag Labelling Kit (NanoTemper) while RRM12, KH12 and KH34 di-domain peptides were labelled using the Protein Labeling Kit RED NHS 2nd generation (NanoTemper). Labelled proteins were spun at 15,000 g for 5 min to eliminate aggregates. All samples were 2× labelled protein mix of Igf2bp1 (200 nM) in PBST and were combined (1:1) with serial dilutions of compound or Kras6 RNA in binding buffer (10 mMTris pH=7.5, 100 mM NaCl, 0.1 mM EDTA, 0.06% IPEGAL, 0.02 μg/μL tRNA, 2 mM DTT, 0.1 μg/μL heparin) in final volume of 20 μL, room temperature for 15 min. Samples were then loaded into standard capillaries (NanoTemper) and read in the Monolith NT.115 scanner (NanoTemper) using the red filter with reading conditions of 95% LED power and 40% MST power, 5 sec fluorescence before, 30 sec MST on, 5 sec fluorescence after and 25 sec delay between samples. Results were analyzed using the MO Control software (NanoTemper) for curve fitting to KD.

[4] = biological target: T1, Igf2bp1 binding to Kras 6 RNA; assay: EMSA, Igf2bp1 with fluorescent Kras 6 RNA; set-up: dose or concentration left out as unconfirmed
Experimental: Recombinant Igf2bp1 protein was serially diluted (1:1) starting at an initial concentration of 10,000 nM in 0.75 μg heparin, in a total volume of 13 μL. Fluorescently labelled Kras 6 RNA (750 nM) diluted in reaction buffer (10 mM Tris pH 7.5, 100 mM NaCl, 0.1 mM EDTA, 1 mg/mL tRNA, 0.25% IGEPAL (Sigma), 0.5 mM DTT) was heated to 65° C. for 5 minutes, kept on ice for 1 minute and RNasin (200 U/mL) (ThermoScientific, RiboLock RNase inhibitor) was then added. […] RNA was added to each well protein sample, and after a 30 min incubation at room temperature in the dark, loading dye (3 μL) (30% glycerol, 0.01% bromocresol green) was added to each mixture. For compound inhibition experiments, compounds or DMSO were incubated for 4 hours at 37° C. with the protein prior to adding the RNA. Samples were electrophoresed on native TBE polyacrylamide gels (6% acrylamide/bis-acrylamide 37.5:1, 0.5×TBE) that had been pre-run for 30 min. Gels were run at 120V in 0.5×TBE, at 4° C. in the dark. They were then carefully washed and scanned using a Typhoon FLA9500 imager using Alexa 488 laser and LPB1/2 filter. Igf2bp1-RNA complex formation was quantified using the ImageJ software. Prism6 software was used for curve fitting and KD calculations.

La protein = biological target: T3, La protein (UniProt P05455 P05455:1-408); assay: EMSA; not affected by 7773; details: label: 5'-6FAM
T3 sequence: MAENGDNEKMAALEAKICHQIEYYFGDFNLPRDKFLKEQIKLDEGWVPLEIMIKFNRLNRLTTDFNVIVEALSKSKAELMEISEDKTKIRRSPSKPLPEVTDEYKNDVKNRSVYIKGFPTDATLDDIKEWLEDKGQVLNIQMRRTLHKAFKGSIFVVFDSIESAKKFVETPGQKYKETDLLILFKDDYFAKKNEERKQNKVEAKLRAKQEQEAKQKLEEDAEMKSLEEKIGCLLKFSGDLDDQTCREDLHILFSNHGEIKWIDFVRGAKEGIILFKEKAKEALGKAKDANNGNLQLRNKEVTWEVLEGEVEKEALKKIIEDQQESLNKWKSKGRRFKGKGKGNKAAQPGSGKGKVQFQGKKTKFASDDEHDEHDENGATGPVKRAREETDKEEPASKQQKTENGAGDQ

Sequence of Igf2bp1-cMyc RNA interaction (Q9NZI8 whole entry): as the sequence (Q9NZI8 whole entry) above

Molecule: NC(=O)c1ccccc1N=Cc1ccc(Br)s1 [BTYNB]
- Igf2bp1-cMyc RNA interaction in vitro [1]: inhibited

Molecule: O=C(c1ccc(Cn2c(CO)cc3ccccc32)cc1)N1CCN(c2ccc3c(c2)OCO3)CC1 [Compound 15]
- Efficiency at inhibiting wound healing compared to Compound 7773 (H1299 cells): over 10 fold
- Cell proliferation [2]: inhibition of cell proliferation

- IC50 [3]: ~90 µM and > 100 µM
- Affinity for Igf2bp1 relative to 7773 (Igf2bp1): approximately seven times lower affinity
Molecule: O=C(c1cccc(-n2cnnn2)c1)N1CCCC(Nc2ccc3c(c2)OCO3)C1 (stereo not shown) [Compound 393, reference compound]
- Inhibition of Igf2bp1 binding to Kras 6 RNA (gel shift) [4]: lower, but observable, inhibition of RNA binding

Molecule: CCCGUUGCUUUUCCUCUGGGAAGGAUGGCGCACGCUGGG (ssRNA) [Bcl2 RNA oligo]
- binding result (La protein): binds

Source: patent publication US20240025886A1, “INHIBITORS OF IGF2BP1-RNA BINDING” (YISSUM RESEARCH DEVELOPMENT COMPANY OF THE HEBREW …, priority 2020, published 2024)
